Measured values reported in patent US12331041B2, “GLP-1 receptor agonists and uses thereof” (Pfizer Inc., priority 2018, dated 2025).
Structures can show the parent of a compound that is named as a salt.

What was measured:
[1] = molecular target: T1, human GLP-1R (Homo sapiens, UniProt P43220, L260F); test: CHO GLP-1R Clone C6 - Assay 2 (HTRF cAMP agonist assay); assay type: cell-based; settings: for EC50: CHO clone C6, low GLP-1R density, cAMP, geometric mean; for Emax: CHO clone C6, relative to saturating full agonist GLP-1 (1 μM), arithmetic mean
T1 construct: expressed in transfected cells; host or cells: CHO Flp-In T-REx, clonal line C6 (pcDNA5-FRT-TO)

[2] = molecular target: T2, human GLP-1R (Homo sapiens, UniProt P43220, G168S); test: CHO GLP-1R Clone H6 - Assay 1 (HTRF cAMP agonist assay); assay type: cell-based; settings: for EC50: CHO Clone H6, high GLP-1R density, cAMP, geometric mean; for Emax: CHO Clone H6, relative to saturating full agonist GLP-1 7-36 (1 μM), arithmetic mean
T2 construct: expressed in transfected cells
Summary of the method: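 CHO Clone H6 cells stably expressing human GLP-1R (G168S) were plated 48 h, then given compound for 30 min at 37° C in HBSS/0.1% BSA/HEPES with 100 μM IBMX and 1% DMSO. cAMP was measured by HTRF against a standard curve.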

T1 sequence (P43220 24-463 L260F): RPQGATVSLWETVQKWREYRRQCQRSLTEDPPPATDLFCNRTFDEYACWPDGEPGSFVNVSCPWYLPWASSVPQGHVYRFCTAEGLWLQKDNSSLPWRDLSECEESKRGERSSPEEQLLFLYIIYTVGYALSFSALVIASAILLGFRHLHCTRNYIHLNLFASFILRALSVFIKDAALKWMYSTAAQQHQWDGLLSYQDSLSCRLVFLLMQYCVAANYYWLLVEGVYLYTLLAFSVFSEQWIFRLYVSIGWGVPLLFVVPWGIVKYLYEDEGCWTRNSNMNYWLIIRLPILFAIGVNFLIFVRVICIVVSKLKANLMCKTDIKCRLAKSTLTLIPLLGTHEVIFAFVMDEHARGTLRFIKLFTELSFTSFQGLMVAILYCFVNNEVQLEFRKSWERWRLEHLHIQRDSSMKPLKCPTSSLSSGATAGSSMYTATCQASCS
T2 sequence (P43220 24-463 G168S): as the sequence (P43220 24-463 L260F) above, with G145S, F237L counted along it

| EC50 [1] | Emax [1] | EC50 [2] | Emax [2] | Compound |
| --- | --- | --- | --- | --- |
| 150 nM | 91% | 6 nM | 86% | CCn1nncc1Cn1c(CN2CCC(c3cccnc3OCc3ccc(C#N)cc3F)CC2)nc2ccc(C(=O)O)cc21 [Example 17, 2-[(4-{2-[(4-cyano-2-fluorobenzyl)oxy]pyridin-3-yl}piperidin-1-yl)methyl]-1-[(1-ethyl-1H-1,2,3-triazol-5-yl)methyl]-1H-benzimidazole-6-carboxylic acid, trifluoroacetate salt] |
| 42 nM | 94% | 5.3 nM | 90% | O=C(O)c1ccc2nc(CN3CCC(c4nccnc4OCc4ccc(Cl)cc4F)CC3)n(C[C@@H]3CCO3)c2c1 [Example 19, Ammonium 2-[(4-{3-[(4-chloro-2-fluorobenzyl)oxy]pyrazin-2-yl}piperidin-1-yl)methyl]-1-[(2S)-oxetan-2-ylmethyl]-1H-benzimidazole-6-carboxylate] |
| 6.1 nM | 91% | 0.34 nM | 80% | CCn1cncc1Cn1c(CN2CCC(c3nccnc3OCc3ccc(Cl)cc3F)CC2)nc2ccc(C(=O)O)cc21 [Example 20, 2-[(4-{3-[(4-chloro-2-fluorobenzyl)oxy]pyrazin-2-yl}piperidin-1-yl)methyl]-1-[(1-ethyl-1H-imidazol-5-yl)methyl]-1H-benzimidazole-6-carboxylic acid, trifluoroacetate salt] |
| 370 nM | 91% | 14 nM | 73% | O=C(O)c1ccc2nc(CN3CCC(c4nccnc4OCc4ccc(Cl)cc4F)CC3)n(Cc3cocn3)c2c1 [Example 21, 2-[(4-{3-[(4-chloro-2-fluorobenzyl)oxy]pyrazin-2-yl}piperidin-1-yl)methyl]-1-(1,3-oxazol-4-ylmethyl)-1H-benzimidazole-6-carboxylic acid, trifluoroacetate salt] |
| 23 nM | 82% | 2.8 nM | 85% | O=C(O)c1ccc2nc(CN3CCC(c4nccnc4OCc4ccc(Cl)cc4F)CC3)n(Cc3ncco3)c2c1 [Example 22, 2-[(4-{3-[(4-chloro-2-fluorobenzyl)oxy]pyrazin-2-yl}piperidin-1-yl)methyl]-1-(1,3-oxazol-2-ylmethyl)-1H-benzimidazole-6-carboxylic acid, trifluoroacetate salt] |
| 450 nM | 94% | 41 nM | 89% | COCCn1c(CN2CCC(c3nccnc3OCc3ccc(Cl)cc3F)CC2)nc2ccc(C(=O)O)cc21 [Example 23, 2-[(4-{3-[(4-chloro-2-fluorobenzyl)oxy]pyrazin-2-yl}piperidin-1-yl)methyl]-1-(2-methoxyethyl)-1H-benzimidazole-6-carboxylic acid, hydrochloride salt] |
| 33 nM | 89% | 2 nM | 76% | O=C(O)c1ccc2nc(CN3CCC(c4nccnc4OCc4ccc(Cl)cc4F)CC3)n(Cc3cnco3)c2c1 [Example 24, 2-[(4-{3-[(4-chloro-2-fluorobenzyl)oxy]pyrazin-2-yl}piperidin-1-yl)methyl]-1-(1,3-oxazol-5-ylmethyl)-1H-benzimidazole-6-carboxylic acid, trifluoroacetate salt] |
| 73 nM | 91% | 6.3 nM | 80% | N#Cc1ccc(COc2nccnc2C2CCN(Cc3nc4ccc(C(=O)O)cc4n3Cc3ncco3)CC2)c(F)c1 [Example 25, 2-[(4-{3-[(4-cyano-2-fluorobenzyl)oxy]pyrazin-2-yl}piperidin-1-yl)methyl]-1-(1,3-oxazol-2-ylmethyl)-1H-benzimidazole-6-carboxylic acid, trifluoroacetate salt] |
| 38 nM | 86% | 5.1 nM | 86% | Cn1cncc1Cn1c(CN2CCC(c3nccnc3OCc3ccc(Cl)cc3F)CC2)nc2ccc(C(=O)O)cc21 [Example 26, 2-[(4-{3-[(4-chloro-2-fluorobenzyl)oxy]pyrazin-2-yl}piperidin-1-yl)methyl]-1-[(1-methyl-1H-imidazol-5-yl)methyl]-1H-benzimidazole-6-carboxylic acid, trifluoroacetate salt] |
| 16 nM | 85% | 0.84 nM | 86% | CCn1cncc1Cn1c(CN2CCC(c3nccnc3OCc3ccc(C#N)cc3F)CC2)nc2ccc(C(=O)O)cc21 [Example 27, 2-[(4-{3-[(4-cyano-2-fluorobenzyl)oxy]pyrazin-2-yl}piperidin-l-yl)methyl]-1-[(1-ethyl-1H-imidazol-5-yl)methyl]-1H-benzimidazole-6-carboxylic acid, trifluoroacetate salt] |
| 2800 nM | 110% | 140 nM | 79% | Cn1c(CN2CCC(c3nccnc3OCc3ccc(Cl)cc3F)CC2)nc2ncc(C(=O)O)cc21 [Example 30, 2-[(4-{3-[(4-chloro-2-fluorobenzyl)oxy]pyrazin-2-yl}piperidin-1-yl)methyl]-1-methyl-1H-imidazo[4,5-b]pyridine-6-carboxylic acid, hydrochloride salt] |
| 84 nM | 110% | 3.1 nM | 93% | O=C(O)c1ccc2nc(CN3CCN(c4cccnc4OCc4ccc(Cl)cc4F)CC3)n(C[C@@H]3CCO3)c2c1 [Example 33, Ammonium 2-[(4-{2-[(4-chloro-2-fluorobenzyl)oxy]pyridin-3-yl}piperazin-1-yl)methyl]-1-[(2S)-oxetan-2-ylmethyl]-1H-benzimidazole-6-carboxylate] |
| 190 nM | 92% | 9.3 nM | 88% | Cn1cncc1Cn1c(C2CC23CCN(c2cccc(OCc4ccc(C#N)cc4F)n2)CC3)nc2ccc(C(=O)O)cc21 (stereo not drawn) [Example 37, 2-(6-{6-[(4-cyano-2-fluorobenzyl)oxy]pyridin-2-yl}-6-azaspiro[2.5]oct-1-yl)-1-[(1-methyl-1H-imidazol-5-yl)methyl]-1H-benzimidazole-6-carboxylic acid, trifluoroacetate salt] |
| 29 nM | 95% | 1.6 nM | 90% | CCn1cncc1Cn1c(C2CC23CCN(c2nc(OCc4ccc(Cl)cc4F)ncc2F)CC3)nc2ccc(C(=O)O)cc21 (stereo not drawn) [Example 39, 2-(6-{2-[(4-chloro-2-fluorobenzyl)oxy]-5-fluoropyrimidin-4-yl}-6-azaspiro[2.5]oct-1-yl)-1-[(1-ethyl-1H-imidazol-5-yl)methyl]-1H-benzimidazole-6-carboxylic acid, trifluoroacetate salt, from P7] |
| 2000 nM | 100% | 150 nM | 77% | Cn1c(C2CC23CCN(c2nc(OCc4ccc(Cl)cc4F)ncc2F)CC3)nc2ccc(C(=O)O)nc21 (stereo not drawn) [Example 40, 2-(6-{2-[(4-chloro-2-fluorobenzyl)oxy]-5-fluoropyrimidin-4-yl}-6-azaspiro[2.5]oct-1-yl)-3-methyl-3H-imidazo[4,5-b]pyridine-5-carboxylic acid, trifluoroacetate salt, from P7] |
